Assay: Evans blue penetration after blood-brain barrier opening by ultrasound and microbubbles
Assay type: in vivo, BALB/c nude mice
Experimental: To derive the optimal ultrasound conditions for opening the blood-brain barrier (BBB), the degree of opening of the blood-brain barrier was compared and analyzed using Evans blue. Evans blue is a very small dye with a molecular weight of 961 Da and is widely used for analyzing the degree of opening of the blood-brain barrier. The experiment was performed using normal BALB/c nude mice, and after injecting microbubbles via intravenous injection, ultrasound was emitted using a high-intensity focused ultrasound device, VIFU2000. […] The brain tissue was soaked in formamide, incubated overnight at 70° C. to extract Evans blue in the brain tissue, and the degree of opening of the blood-brain barrier was quantitatively analyzed by measuring the absorbance at wavelengths of 670 nm and 740 nm using UV-vis.
Factors that can affect the cavitation of ultrasound and microbubbles, a mechanism that opens the blood-brain barrier, include ultrasound conditions such as the frequency, intensity, duty cycle, and ultrasound emission time of the ultrasound, and also the number of microbubbles. Therefore, to confirm the ultrasound conditions and the number of microbubbles that can open the blood-brain barrier, the degree of opening of the blood-brain barrier according to the number of microbubbles was first quantitatively analyzed. […]

Structure (SMILES): Cc1cc(-c2ccc(/N=N/c3ccc4c(S(=O)(=O)O)cc(S(=O)(=O)O)c(N)c4c3O)c(C)c2)ccc1/N=N/c1ccc2c(S(=O)(=O)O)cc(S(=O)(=O)O)c(N)c2c1O [Evans blue]
- Penetration efficiency into brain depending on number of microbubbles (1 MHz, 1 W, DC 5%, PRF 1 Hz, 60 s, 2, 5, 10 × 10^6/g microbubbles, brain 24 hours later): improving the penetration efficiency of Evans blue
- Penetration effect into brain depending on ultrasound intensity and emission time (microbubbles 5×10^6/g, 1-3 W, duty cycle 1-10%, 60-180 s): increased proportionally

Source: patent US20240122853A1, “COMPOSITION FOR PENETRATING BLOOD-BRAIN BARRIER, CONTAINING SONOSENSITIVE LIPOSOMES AS ACTIVE INGREDIENTS” (IMGT CO, LTD., priority 2021, published 2024)
